The values below come from US20130123184A1, “METHODS FOR […] OF HUMAN FETAL HEMOGLOBIN” (National Institutes of Health, priority 2007, published 2013).

Molecules are shown by their SMILES. Entries after “also recorded” stand apart in the source; their conditions may differ.

Data set [1] deals with human γ globin gene expression. Nature of the data set: erythroid colony forming unit (CFUe) assay, real-time PCR of human γ globin gene expression. It counts as cell-based, mouse. The method, then:
(§1) Experiments were performed with mice that are transgenic for a yeast artificial chromosome that contains the full human β-globin locus. […] However mice do have the appropriate transcription factors to interpret and express the human globin locus.
(§2) To determine if romidepsin alters human globin expression erythroid colony forming unit assays were conducted. This involved extracting fetal liver cells from the developing embryo, at a time when both γ and β globin are expressed. Cells were then cultured in a semi-solid media (methyl-cellulose) containing growth factors (SCF and Epo) with or without romidepsin. We harvested CFUe colonies at 2 days of culture (a pool of 10 from each treatment, each treatment was performed in duplicate) and performed an immediate cell lysis and cDNA amplification. The cDNA was then subjected to real-time PCR to determine levels of mouse α, human γ and human β globin gene expression. The cells were treated with a range of romidepsin concentrations from 0.185 nM to 18.5 nM, and the colony assay was performed on 6 separate occasions.
(§3) The results (0.185 nM or 1.85 nM romidepsin) are presented in FIG. 1 relative to mouse α levels, and relative to the control performed in each particular experiment. […] When the 0.185 nM and 1.85 nM data are combined there is a 130-fold increase in γ globin expression, as compared to mouse α globin expression and untreated cells.
In general terms: Real-time PCR tracks product formation cycle by cycle.

In data set [2] the test system is human β globin gene expression. Nature of the data set: erythroid colony forming unit (CFUe) assay, real-time PCR of human β globin gene expression. The data set is classed as cell-based. Conditions: 0.185 nM or 1.85 nM; relative to mouse α levels and control. The protocol:
as §1, §2, §3

In the next data set the test system is fetal liver cells. Description: toxicity analysis of CFUe colonies (number and size of colonies). It counts as cell-based, mouse. The method, then: as §2
Each colony was also analyzed for toxicity effects. […] Thus globin analysis at this dose is not presented.

The test system of another data set is fetal hemoglobin. Description: circulating fetal hemoglobin levels in phase II clinical trial patients (CTCL and PTCL). Conditions: at least two months, 44 patients evaluated. The data set is classed as in vivo, human. The method, then:
As part of an ongoing phase II clinical trial into the effects of romidepsin in patients with cutaneous (CTCL) and peripheral (PTCL) T-cell lymphoma, the levels of circulating fetal hemoglobin were determined. From a total of 53 patients in the trial, 44 were evaluated. Romidepsin was administered as a 4 hour infusion on days 1, 8, and 15 of a 28 day cycle with a dose of 14 mg/m^2. Fetal hemoglobin levels were measured during at least two months of treatment with romidepsin. Fetal hemoglobin levels were expressed first as a percent of the patient's total hemoglobin and then corrected (by multiplying the total hemoglobin by percent fetal hemoglobin).

Where [3] appears, read: fold increase in fetal hemoglobin 0-2, 14 mg/m^2 4 hour infusion days 1, 8, 15 of 28 day cycle.
[4] abbreviates: fold increase in fetal hemoglobin 2-5, 14 mg/m^2.
Setting [5] is: fold increase in fetal hemoglobin 5-10, 14 mg/m^2.
The mark [6] stands for this setting: fold increase in fetal hemoglobin 10-20, 14 mg/m^2.
The mark [7] stands for this setting: fold increase in fetal hemoglobin >2, 14 mg/m^2.
Where [8] appears, read: fold increase in fetal hemoglobin >5, 14 mg/m^2.
The mark [9] stands for this setting: fold increase in fetal hemoglobin >10, 14 mg/m^2.
Where [10] appears, read: fold increase in fetal hemoglobin >20, 14 mg/m^2.

Consider `C/C=C1\NC(=O)[C@H]2CSSCC/C=C/[C@H](CC(=O)N[C@H](C(C)C)C(=O)N2)OC(=O)[C@H](C(C)C)NC1=O` [romidepsin, (1S,4S,10S,16E,21R)-7-[(2Z)-ethylidene]-4,21-diisopropyl-2-oxa-12,13-dithia-5,8,20,23-tetraazabicyclo[8.7.6]tricos-16-ene-3,6,9,19,22-pentanone], for which, in data set [1] (0.185 nM and 1.85 nM data combined, compared to mouse α globin expression and untreated cells, transgenic fetal liver CFUe colonies, 2 days of culture, mean±SEM, n=6), the “fold increase in γ globin expression” value is on record as 130 fold. Further, the “γ globin gene expression following romidepsin treatment” value in data set [1] (0.185 nM or 1.85 nM, relative to mouse α levels and control) is on record as “increase; also recorded: up-regulation”. In addition, the “expression of human globin at the highest doses” value in data set [1] (highest doses of romidepsin) is given as “lower”. The “β globin gene expression following romidepsin treatment” value in data set [2] is reported as “not affected; also recorded: no change”. The “total number of colonies or size of CFUe” value in the data set with fetal liver cells (0.185 nM and 1.85 nM) is reported as “no differences”. In addition, the “toxicity to the fetal liver cells” value in the data set on fetal liver cells (18.5 nM, accurate data not gathered) was “toxic”. Besides, the “% of patients” value is reported as 23% in the data set on fetal hemoglobin (setting [3]); 23% in the data set with fetal hemoglobin (setting [4]); 20% in the data set on fetal hemoglobin (setting [5]); 23% in the data set on fetal hemoglobin (setting [6]); 77% in the data set on fetal hemoglobin (setting [7]); 55% in the data set on fetal hemoglobin (setting [8]). The “% of patients” value in the data set on fetal hemoglobin (setting [9]) worked out at 34%; in the data set on fetal hemoglobin (setting [10]) it was 11%. Further, the Number of patients was determined as 10 in the data set on fetal hemoglobin (setting [3]); 10 in the data set with fetal hemoglobin (setting [4]); 9 with fetal hemoglobin (setting [5]); 10 with fetal hemoglobin (setting [6]); 34 in the data set on fetal hemoglobin (setting [7]); 24 in the data set on fetal hemoglobin (setting [8]). Further, the Number of patients in the data set with fetal hemoglobin (setting [9]) is listed as 15; in the data set with fetal hemoglobin (setting [10]), 5.
